Results taken from patent US7875638B2, “Synthesis of epothilones, intermediates thereto, analogues and uses thereof” (Sloan-Kettering Institute for Cancer Research, priority 2002, dated 2011).

Assays:
[1] = test system: RPMI-8226 (human multiple myeloma cell line); test: Global gene expression (Affymetrix chip AU133 2.0); format: cell-based
[2] = test system: RPMI8226 myeloma cell line; test: Annexin V staining, RPMI8226; format: cell-based, human; conditions: 24 hours treatment
Text: In early apoptotic cells, the membrance phospholipids phosphatidylserine (PS) is translocated from the inner to the outer leaflet of the plasma membrane, thereby exposing PS to the external cellular environment. Annexin V is a 35-36 kD Ca^+2 dependent phospholipid-binding protein that has a high affinity for PS, and binds to cells with exposed PS. In conjunction with a vital dye such as 7-amino-actinomycin (7-AAD) staining dead cells, this assay allows the identification of early apoptotic cells.

[3] = 6 hr gene difference, Fludelone vs dEpoB treated cells
[4] = 18 hr gene difference, Fludelone vs dEpoB treated cells

Compound: C/C(=C\c1csc(C)n1)[C@@H]1C/C=C(/C(F)(F)F)C/C=C/[C@H](C)[C@H](O)[C@@H](C)C(=O)C(C)(C)[C@@H](O)CC(=O)O1 [Compound 29, 26-trifluoro-trans-9,10-dehydro-12,13-desoxyepothilone B]
- Fold change, T RIM34 ([1]; 6 h): −5.66 fold
- Fold change, TRIM22 ([1]; 6 h): −2.46 fold
- Fold change, GIP3 [1, 3]: −6.06 fold
- Fold change, IFI 27 [1, 3]: −7.46 fold
- Fold change, IFTM1 [1, 3]: −4.00 fold
- Fold change, MX1 [1, 3]: −2.00 fold
- Fold change in expression, AIP1 ([1]; 18 h): +2.14 fold
- Fold change in expression, AKAP9 ([1]; 18 h): +2.00 fold
- Fold change in expression, APBB2 ([1]; 18 h): +2.00 fold
- Fold change in expression, APG16L ([1]; 18 h): +2.00 fold
- Fold change in expression, APRIN ([1]; 18 h): +2.00 fold
- Fold change in expression, BAX ([1]; 18 h): +2.00 fold
- Fold change in expression, CCL3 ([1]; 18 h): +3.48 fold
- Fold change in expression, CCT8 ([1]; 18 h): +2.30 fold
- Fold change in expression, CD72 ([1]; 18 h): +2.30 fold
- Fold change in expression, CEB1 ([1]; 18 h): −2.30 fold
- Fold change in expression, CLorf29 ([1]; 18 h): −6.06 fold
- Fold change in expression, Cyclin E2 ([1]; 18 h): −2.64 fold
- Fold change in expression, DNAJB1 ([1]; 18 h): +2.30 fold
- Fold change in expression, DUSP6 ([1]; 18 h): −2.14 fold
- Fold change in expression, EIFA1 ([1]; 18 h): +2.30 fold
- Fold change in expression, ETS2 ([1]; 18 h): +2.46 fold
- Fold change in expression, F11 ([1]; 18 h): −4.00 fold
- Fold change in expression, FBXO5 ([1]; 18 h): −2.30 fold
- Fold change in expression, FLJ20045 ([1]; 18 h): −2.46 fold
- Fold change in expression, FLJ20130 ([1]; 18 h): −5.66 fold
- Fold change in expression, FLJ20241 ([1]; 18 h): +3.73 fold
- Fold change in expression, Fibrillin 2 ([1]; 18 h): +12.3 fold
- Fold change in expression, GA17 ([1]; 18 h): +2.64 fold
- Fold change in expression, GTF2H2 ([1]; 18 h): +3.03 fold
- Fold change in expression, HDAC9 ([1]; 18 h): −2.00 fold
- Fold change in expression, HNRPD ([1]; 18 h): −3.25 fold
- Fold change in expression, HSPA1A ([1]; 18 h): +2.14 fold
- Fold change in expression, HSPA1B ([1]; 18 h): +2.00 fold
- Fold change in expression, JUN ([1]; 18 h): +2.64 fold
- Fold change in expression, KIAA0191 protein ([1]; 18 h): +2.14 fold
- Fold change in expression, KIAA1025 protein ([1]; 18 h): +3.25 fold
- Fold change in expression, MADH1 ([1]; 18 h): +2.00 fold
- Fold change in expression, MARS ([1]; 18 h): −2.00 fold
- Fold change in expression, NRTN ([1]; 18 h): −2.3 fold
- Fold change in expression, PCNX ([1]; 18 h): +3.48 fold
- Fold change in expression, PHC3 ([1]; 18 h): +2.83 fold
- Fold change in expression, PKD1 ([1]; 18 h): +7.46 fold
- Fold change in expression, POU4F1 ([1]; 18 h): −2.14 fold
- Fold change in expression, PRKCBP1 ([1]; 18 h): +2.64 fold
- Fold change in expression, PRKDC ([1]; 18 h): +21.11 fold
- Fold change in expression, REPS1 ([1]; 18 h): +9.85 fold
- Fold change in expression, RPL23 ([1]; 18 h): +2.14 fold
- Fold change in expression, SEC24D ([1]; 18 h): +2.64 fold
- Fold change in expression, SEMA3D ([1]; 18 h): +2.83 fold
- Fold change in expression, SERPINH1 ([1]; 18 h): +2.00 fold
- Fold change in expression, SLC13A1 ([1]; 18 h): +3.03 fold
- Fold change in expression, SMA3 ([1]; 18 h): +2.46 fold
- Fold change in expression, TCS2 ([1]; 18 h): +2.30 fold
- Fold change in expression, TMEM1 ([1]; 18 h): +2.14 fold
- Fold change in expression, TRA2A ([1]; 18 h): +3.03 fold
- Fold change in expression, TRIO ([1]; 18 h): +4.29 fold
- Fold change in expression, VEZATIN ([1]; 18 h): +2.00 fold
- Fold change in expression, ZF (HCF-binding transcription factor) ([1]; 18 h): −6.50 fold
- Fold change in expression, ZFY ([1]; 18 h): +2.14 fold
- Fold change, CEB1 ([1]; 18 h): −2.00 fold
- Fold change, DUSP4 ([1]; 18 h): −2.14 fold
- Fold change, HMT-1 ([1]; 18 h): +11.3 fold
- Fold change, IFIT1 ([1]; 18 h): −2.00 fold
- Fold change, OAS2 ([1]; 18 h): −2.00 fold
- Fold change, PLSCR1 ([1]; 18 h): −2.00 fold
- Fold change, PPAP2C ([1]; 18 h): −2.14 fold
- Fold change, TRIM22 ([1]; 18 h): −2.00 fold
- Fold change, GIP3 [1, 4]: −5.28 fold
- Fold change, IFI 27 [1, 4]: −5.28 fold
- Fold change, IFITM1 [1, 4]: −3.25 fold
- Fold change, MX1 [1, 4]: −2.30 fold
- Fold change in expression, G1P3 ([1]; 18 hrs, ×10 IC50 dose, vs control): −3.73 fold
- Apoptosis (Annexin V / 7-AAD) [2]: majority of cell either enter apoptosis or are dead
